Consider 30 compounds from patent US8153818B2, “Triazolyl phenyl benzenesulfonamides” (ChemoCentryx, Inc., priority 2006, dated 2012).

For the experiment, the target named is T1, CCR9 (Homo sapiens, UniProt P51686).
T1 construct: chemokine expressing cells (such as THP-1 cells for CCR2 assay or MOLT-4 cells for CCR9 assay); host or cells: MOLT-4
T1 sequence (P51686 1-369): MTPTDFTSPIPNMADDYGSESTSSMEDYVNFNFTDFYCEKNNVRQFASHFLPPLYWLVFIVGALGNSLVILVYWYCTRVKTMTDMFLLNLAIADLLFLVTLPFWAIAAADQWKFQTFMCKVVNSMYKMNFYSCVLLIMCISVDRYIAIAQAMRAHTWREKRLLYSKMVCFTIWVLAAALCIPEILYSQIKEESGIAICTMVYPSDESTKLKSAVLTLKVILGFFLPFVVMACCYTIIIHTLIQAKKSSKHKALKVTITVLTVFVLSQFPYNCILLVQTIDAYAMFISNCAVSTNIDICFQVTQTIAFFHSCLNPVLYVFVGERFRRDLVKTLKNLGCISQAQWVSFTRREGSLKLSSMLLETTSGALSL
Briefly: CCR9 activity in one of the chemotaxis, binding or calcium mobilization assays. The format is cell-based. To be noted: assay not specified per compound. On the procedure:
Conventional migration assay was used to determine the efficacy of potential receptor antagonists in blocking migration mediated through chemokines (such as CCR2 or CCR9). This assay was routinely performed using the ChemoTX® microchamber system with a 5-μm pore-sized polycarbonate membrane. To begin such an assay, chemokine expressing cells (such as THP-1 cells for CCR2 assay or MOLT-4 cells for CCR9 assay) were harvested by centrifugation of cell suspension at 1000 RPM on a GS-6R Beckman centrifuge. The cell pellet was resuspended in chemotaxis buffer (HBSS with 0.1% BSA) at 10×10^6 cells/mL for CCR2 assay (5×10^6 cells/mL for CCR9 assay). Test compounds at desired concentrations were prepared from 10 mM stock solutions by serial dilutions in chemotaxis buffer. An equal volume of cells and compounds were mixed and incubated at room temperature for 15 minutes. Afterwards, 20 μL of the mixture was transferred onto the porous membrane of a migration microchamber, with 29 μL of chemokine ligand (0.1 nM chemokine MCP-1 protein for CCR2 assay or […] chemokine TECK protein for CCR9 assay) placed at the lower chamber. Following an incubation at 37° C. (90-minute for CCR2; 150-minute for CCR9), during which cells migrated against the chemokine gradient, the assay was terminated by removing the cell drops from atop the filter. To quantify cells migrated across the membrane, 5 μL of 7×CyQUANT® solution was added to each well in the lower chamber, and the fluorescence signal measured on a Spectrafluor Plus fluorescence plate reader (TECAN, Durham, N.C.). The degree of inhibition was determined by comparing migration signals between compound-treated and untreated cells. IC50 calculation was further performed by non-linear squares regression analysis using Graphpad Prism (Graphpad Software, San Diego, Calif.).
Calcium flux assay measures an increase in intracellular calcium following ligand-induced receptor activation. In the screen of chemokine antagonists, it was used as a secondary assay carried out on a FLIPR® machine (Molecular Devices, Mountain View, Calif.). To begin an assay, chemokine expressing cells (such as THP-1 cells for CCR2 assay or MOLT-4 cells for CCR9 assay) were harvested by centrifugation of cell suspension, and resuspended to 1.5×10^6 cells/mL in HBSS (with 1% fetal calf serum). Cells were then labeled with a calcium indicator dye Fluo-4 AM for 45 minutes at 37° C. with gentle shaking. Following incubation, cells were pelletted, washed once with HBSS and resuspended in the same buffer at a density of 1.6×10^6 cells/mL. One hundred microliters of labeled cells were mixed with 10 μL of test compound at the appropriate concentrations on an assay plate. Chemokine protein (MCP-1 at a final concentration of 0.1 nM for CCR2 assay or TECK at a final concentration of 25 nM for CCR9 assay) to activate the receptor. The degree of inhibition was determined by comparing calcium signals between compound-treated and untreated cells. IC50 calculations were further performed by non-linear squares regression analysis using Graphpad Prism (Graphpad Software, San Diego, Calif.). […]
In the tables below, structures and activity are provided for representative compounds described herein. Activity is provided as follows for either or both of the chemotaxis assay and/or calcium mobilization assays, described above.
Turning to `Cn1c(-c2cocn2)nnc1-c1cc(Cl)ccc1NS(=O)(=O)c1ccc(C(C)(C)C)cc1` [Compound 40], the IC50 was < 1 µM.
Under `Cc1nnc(-c2ccc(F)cc2NS(=O)(=O)c2ccc(C(C)(C)C)cc2)n1C` [Compound 72, 4-tert-butyl-N-(2-(4,5-dimethyl-4H-1,2,4-triazol-3-yl)-5-fluorophenyl)benzenesulfonamide] stands < 1 µM; under `Cn1cnnc1-c1cc(Cl)ccc1NS(=O)(=O)c1ccc(C(C)(C)C)cc1` [Compound 30, 4-tert-butyl-N-(4-chloro-2-(4-methyl-4H-1,2,4-triazol-3-yl)phenyl)benzenesulfonamide], < 1 µM.
Then `CC(=O)N1CCC(n2c(C)nnc2-c2cc(Cl)ccc2NS(=O)(=O)c2ccc(C(C)(C)C)cc2)CC1` [Compound 91], with < 1 µM; and `CNCCn1c(C)nnc1-c1cc(Cl)ccc1NS(=O)(=O)c1ccc(C(C)(C)C)cc1` [Compound 126, 4-tert-butyl-N-(4-chloro-2-(5-methyl-4-(2-(methylamino)ethyl)-4H-1,2,4-triazol-3-yl)phenyl)benzenesulfonamide], with < 1 µM; and `CC(C)c1nnc(-c2cc(Cl)c(F)cc2NS(=O)(=O)c2ccc(C(C)(C)C)cc2)n1[C@H]1CCNC1` [Compound 146], with < 1 µM.
Then `COCCc1nnc(-c2cc(Cl)ccc2NS(=O)(=O)c2ccc(C(C)(C)C)cc2)n1C` [Compound 41, 4-tert-butyl-N-(4-chloro-2-(5-(2-methoxyethyl)-4-methyl-4H-1,2,4-triazol-3-yl)phenyl)benzenesulfonamide], with < 1 µM; and `Cc1nnc(-c2cc(Cl)ccc2NS(=O)(=O)c2ccc(N3CCOCC3)c(F)c2)n1C` [Compound 135, N-(4-chloro-2-(4,5-dimethyl-4H-1,2,4-triazol-3-yl)phenyl)-3-fluoro-4-morpholinobenzenesulfonamide], with < 1 µM.
For `CC(C)(C)c1ccc(S(=O)(=O)Nc2cc(F)c(Cl)cc2-c2nncn2C2CCCNC2)cc1` (stereo not drawn) [Compound 44], the IC50 is < 1 µM.
`CCn1c(C)nnc1-c1ccc(F)cc1NS(=O)(=O)c1ccc(C(C)(C)C)cc1` [Compound 74, 4-tert-butyl-N-(2-(4-ethyl-5-methyl-4H-1,2,4-triazol-3-yl)-5-fluorophenyl)benzenesulfonamide]: the half-maximal inhibitory concentration (IC50) was < 1 µM.
Then `COCc1nnc(-c2cc(Cl)c(F)cc2NS(=O)(=O)c2ccc(C(C)(C)C)cc2)n1C` [Compound 107, 4-tert-butyl-N-(4-chloro-5-fluoro-2-(5-(methoxymethyl)-4-methyl-4H-1,2,4-triazol-3-yl)phenyl)benzenesulfonamide], with < 1 µM; and `COCc1nnc(-c2cc(Cl)c(F)cc2NS(=O)(=O)c2ccc(C(C)(C)C)cc2)n1C(C)C` [Compound 51, 4-tert-butyl-N-(4-chloro-5-fluoro-2-(4-isopropyl-5-(methoxymethyl)-4H-1,2,4-triazol-3-yl)phenyl)benzenesulfonamide], with < 1 µM; and `Cc1nnc(-c2cc(Cl)ccc2NS(=O)(=O)c2ccc(C(C)(C)C)cc2)n1[C@@H]1CCNC1` [Compound 73], with < 1 µM.
Consider `CC(C)OCc1nnc(-c2cc(Cl)ccc2NS(=O)(=O)c2ccc(C(C)(C)C)cc2)n1C` [Compound 103, 4-tert-butyl-N-(4-chloro-2-(5-(isopropoxymethyl)-4-methyl-4H-1,2,4-triazol-3-yl)phenyl)benzenesulfonamide], for which the IC50 was < 1 µM.
With `Cc1nnc(-c2cc(Cl)ccc2NS(=O)(=O)c2ccc(OC(C)C)cc2)n1C` [Compound 68, N-(4-chloro-2-(4,5-dimethyl-4H-1,2,4-triazol-3-yl)phenyl)-4-isopropoxybenzenesulfonamide], the IC50 was < 1 µM.
With `C[C@@H](O)c1nnc(-c2cc(Cl)c(F)cc2NS(=O)(=O)c2ccc(C(C)(C)C)cc2)n1C` [Compound 61], the IC50 is < 1 µM.
Then `Cc1nnc(-c2cc(Cl)c(F)cc2NS(=O)(=O)c2ccc(C(C)(C)C)cc2)n1[C@H]1CCNC1` [Compound 106], with < 1 µM.
Under `Cn1c(CCS(C)(=O)=O)nnc1-c1cc(Cl)c(F)cc1NS(=O)(=O)c1ccc(C(C)(C)C)cc1` [Compound 89, 4-tert-butyl-N-(4-chloro-5-fluoro-2-(4-methyl-5-(2-(methylsulfonyl)ethyl)-4H-1,2,4-triazol-3-yl)phenyl)benzenesulfonamide] stands < 1 µM.
Take `Cc1nnc(-c2cc(Cl)ccc2NS(=O)(=O)c2ccc(C(C)(C)C)cc2)n1-c1ccccc1` [Compound 4, 4-tert-butyl-N-(4-chloro-2-(5-methyl-4-phenyl-4H-1,2,4-triazol-3-yl)phenyl)benzenesulfonamide]: the IC50 was < 1 µM.
Then `CCn1cnnc1-c1cc(F)c(F)cc1NS(=O)(=O)c1ccc(C(C)(C)C)cc1` [Compound 22, 4-tert-butyl-N-(2-(4-ethyl-4H-1,2,4-triazol-3-yl)-4,5-difluorophenyl)benzenesulfonamide], with < 1 µM.
Regarding `CC(C)N1CC[C@H](n2cnnc2-c2cc(Cl)ccc2NS(=O)(=O)c2ccc(C(C)(C)C)cc2)C1` [Compound 141], the IC50 is < 1 µM.
Consider `Cc1nnc(-c2cc(Cl)ccc2NS(=O)(=O)c2ccc(OC(C)C)cc2)n1C(C)C` [Compound 15, N-(4-chloro-2-(4-isopropyl-5-methyl-4H-1,2,4-triazol-3-yl)phenyl)-4-isopropoxybenzenesulfonamide], for which the IC50 was < 1 µM.
Then `Cn1c(CN2CCNCC2)nnc1-c1cc(Cl)c(F)cc1NS(=O)(=O)c1ccc(C(C)(C)C)cc1` [Compound 147], with < 1 µM.
Then `Cn1c(-c2ccccn2)nnc1-c1cc(Cl)ccc1NS(=O)(=O)c1ccc(C(C)(C)C)cc1` [Compound 97, 4-tert-butyl-N-(4-chloro-2-(4-methyl-5-(pyridin-2-yl)-4H-1,2,4-triazol-3-yl)phenyl)benzenesulfonamide], with < 1 µM; and `CO[C@@H](C)c1nnc(-c2cc(Cl)c(F)cc2NS(=O)(=O)c2ccc(C(C)(C)C)cc2)n1C` [Compound 139], with < 1 µM; and `COCCN(C)Cc1nnc(-c2cc(Cl)c(F)cc2NS(=O)(=O)c2ccc(C(C)(C)C)cc2)n1C` [Compound 149, 4-tert-butyl-N-(4-chloro-5-fluoro-2-(5-(((2-methoxyethyl)(methyl)amino)methyl)-4-methyl-4H-1,2,4-triazol-3-yl)phenyl)benzenesulfonamide], with < 1 µM.
Under `CC(C)n1c(-c2cc(Cl)ccc2NS(=O)(=O)c2ccc(C(C)(C)C)cc2)nnc1C1CCOCC1` [Compound 46] stands < 1 µM; under `Cn1c(C(N)=O)nnc1-c1cc(Cl)c(F)cc1NS(=O)(=O)c1ccc(C(C)(C)C)cc1` [Compound 55, 5-(2-(4-tert-butylphenylsulfonamido)-5-chloro-4-fluorophenyl)-4-methyl-4H-1,2,4-triazole-3-carboxamide], < 1 µM.
With `Cc1nnc(-c2ccc(F)cc2NS(=O)(=O)c2ccc(C(C)(C)C)cc2)n1C(C)C` [Compound 24, 4-tert-butyl-N-(5-fluoro-2-(4-isopropyl-5-methyl-4H-1,2,4-triazol-3-yl)phenyl)benzenesulfonamide], the IC50 is < 1 µM.
With `CCc1nnc(-c2cc(Cl)ccc2NS(=O)(=O)c2ccc(C(C)(C)C)cc2)n1C(C)C` [Compound 13, 4-tert-butyl-N-(4-chloro-2-(5-ethyl-4-isopropyl-4H-1,2,4-triazol-3-yl)phenyl)benzenesulfonamide], the IC50 is < 1 µM.
